# Measured values: patent publication US20200030355A1, “COMBINATION THERAPY FOR TREATING CANCER” (Epizyme, Inc., priority 2014, published 2020)
# Entries after “also recorded” stand apart in the source; their conditions may differ.
# Experiments:
# MOLM-13 (MLL-AF9) [1] = assay: Combination proliferation study with Compound A2 (ATP/CellTiter-Glo, Chou-Talalay combination index); format: cell-based, human
# Summary of the method: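 Viability by CellTiter-Glo ATP luminescence; Fa relative to DMSO controls. Combination index by Chou-Talalay (CI<1 synergy, =1 additive, >1 antagonism).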
# MV4-11 (MLL-AF4) = assay: as above; format: cell-based, human; conditions: for Combination of Compound A2 and anti-cancer agent, MV4-11: 7 Day Cotreatment; for Combination with Compound A2, MV4-11 (MLL-AF4): 7 Day Cotreatment Model, Table 4; for Combination with Compound A2, MV4-111 MLL-AF4: Table 2, Example 3
# Procedure: The acute myelogenous leukemia cell lines MV4-11 (MLL-AF4) and MOLM-13 (MLL-AF9) were obtained from American Type Culture Collection (ATCC; Rockville, Md.) and Deutsche Sammlung von Mikroorganismen and Zellkulturen (DSMZ; Braunschweig, Germany) respectively.
# Studies were performed using MLL-rearranged cell lines in vitro to evaluate the anti-proliferative effect of a combination of two agents together on cell growth. Initial proliferation studies were performed to determine the IC50 of a given compound in each cell line. The cell counts were measured by ATP quantitation using the Promega Cell Titer Glo kit and luminescence values corresponded to the amount of ATP in a given well.
# Compounds were evaluated for synergy in the co-treatment phase by testing the compounds in a concentration range which was bracketed around their IC50 values. The compounds were plated to a 96 well plate in a matrix format (FIG. 3) which includes increasing concentrations of each drug in the combination in a constant ratio, in addition to the effect of each compound alone in the study. Cells were seeded and grown in the log-linear phase for 3 or 7 days in the co-treatment phase. Minimum inhibition (DMSO alone) controls were used in each plate to calculate fraction affected (Fa) of a test well. DMSO concentration was kept at 0.1% v/v.
# The drug combination analysis was performed utilizing the Chou-Talalay method Synergy was determined using the software package Calcusyn by Biosoft. The combination index (CI) is a quantitative term used to describe the level of synergy or antagonism in a given test system. A combination index less than one indicates synergy, and a CI greater than one indicates antagonism. Further, strong synergism is achieved when the CI value falls below 0.3.
# (§1) Graphs representing values of combination index (CI) versus Fractional effect (Fa) known as Fa-CI plots were generated and synergy was evaluated. Drug synergy was statistically defined by CI values less than 1, antagonism by CI>1 and additive effect by CI equal to 1.
# as §1
# (§2) The HP-D300 digital dispenser (Tecan) was used to dispense compounds in a combinatorial matrix. […] Cell viability was measured via ATP content using CellTiter-Glo® (Promega).
# (§3) Viability was determined using CellTiter-Glo® (Promega).
# (§4) Proliferation studies were performed using MOLM-13, MV4-11 and SKM-1 cell lines in vitro to evaluate the cancer cell killing effect of a combination of two agents together on cell growth. Initial proliferation studies were performed to determine the IC50 values of a given compound in each cell line. The cell counts were measured by ATP quantitation using the Promega Cell Titer Glo kit and luminescence values correspond to the amount of ATP in a given well.
# These studies were performed to evaluate both the combinatorial effect of compounds on cell killing and the durability of the effect by washing out one of the agents.
# Compounds evaluated for synergy in the co-treatment phase were tested in a range which was bracketed around the IC50's. The compounds were plated to a 96 well plate in a matrix format which includes increasing concentrations of each drug in the combination in a constant ratio, in addition to the effect of each compound alone in the study.
# [2] = test system: SKM-1 (non-MLL-rearranged AML); assay: as above; format: cell-based, human; conditions: for Effect of Compound A2 on the antiproliferative activity of the second agent: SKM-1, non-MLL-rearranged, Example 5
# Procedure: (§5) Graphs representing values of combination index (CI) versus Fractional effect (Fa) known as Fa-CI plots were generated and synergy was evaluated.
# as §5, §2, §3
# MV4-11 cells were maintained in IMDM supplemented with 10% fetal bovine serum. MOLM-13 and SKM-1 cells were maintained in Roswell Park Memorial Institute medium (RPMI) supplemented with 10% fetal bovine serum. They were cultured in flasks or plates in a humidified 5% CO2 atmosphere.
# as §4
# Compounds evaluated for synergy in the co-treatment phase were tested in a range which was bracketed around the IC50's. The compounds were plated to a 96 well plate in a matrix format which includes increasing concentrations of each drug in the combination in a constant ratio, in addition to the effect of each compound alone in the study. Cells were seeded and grown in the log-linear phase for 3 or 7 days in the cotreatment phase. Maximum and minimum inhibition (DMSO alone) controls were used in each plate to calculate fraction affected (Fa) of a test well. DMSO concentration was kept at 0.1% v/v. The drug combination analysis was performed utilizing the Chou-Talalay method. Synergy was determined using the software package Calcusyn by Biosoft. The combination index (CI) is the term used to describe the level of synergy or antagonism in a given test system. A combination index less than one indicates synergy, and a CI greater than one indicates antagonism.
# The drug combination analysis was performed using the Chou-Talalay method. Graphs representing values of combination index (CI) versus Fractional effect (Fa) known as Fa-CI plots were generated and synergy was evaluated.
# EOL-1 (MLL-PTD) = assay: Combination proliferation study with Compound A2; format: cell-based, human; conditions: Table 3, Example 3
# Procedure: as §2, §3
# KOPM-88 (MLL-PTD) = assay: Combination proliferation study with Compound A2; format: cell-based, human; conditions: Table 3, Example 3
# Procedure: as §2, §3
# MOLM-13 cells = assay: EPZ-5676 300 nM 7-day pre-treatment, then second compound 72 hours, ATPLite, IC50 shift (Example 6); format: cell-based, human; conditions: 300 nM EPZ-5676 or DMSO 7-day pre-treatment, then 2nd compound 72 hours, Synergy = IC50 of 2nd compound decreased by 2-fold or more vs DMSO control
# Procedure: (§6) Cells were then equilibrated in incubators for 24 hours before treatment with a second compound. Treated assay plates were incubated with a second compound for 72 hours. After this time, plates were developed for endpoint analysis using ATPLite to measure ATP content, which is used as an indicator of cell viability.
# (§7) “N/D” means that IC50 of the second compound could not be determined for both conditions.
# SKM-1 cells = assay: as above; format: cell-based, human; conditions: SKM-1 cells; 300 nM EPZ-5676 or DMSO 7-day pre-treatment, then 2nd compound 72 hours, ATPLite; Synergy = IC50 of 2nd compound decreased by 2-fold or more vs DMSO control
# Procedure: as §6, §7
# MOLM-13 (MLL-AF9) [3] = assay: EPZ-5676 7-day pre-treatment, then second compound 72 hours, growth inhibition GI100 shift; primary screen and retest (Example 7); format: cell-based, human; conditions: second compound 72 hours
# Procedure: as §6
# (§8) Cells were then treated with a second compound for 72 hours. After this time, plates were developed for endpoint analysis using Cell Titer Glo to measure ATP content, which is used as an indicator of cell viability.
# (§9) “N/D” means the GI100 of the second compound could not be determined for both conditions and “-” means not tested.
# (§10) Growth Inhibition (GI) as a measure of cell viability: The cell viability of vehicle was measured at the time of dosing the second agent (T0) and after seventy-two hours (T72). […] A GI 200% represents complete death of all cells in the culture well. Compounds reaching an activity plateau of GI 200% are considered cytotoxic. GI is calculated by applying the following test and equation: […]
# (§11) where T is the signal measure for a test article, V is the vehicle-treated control measure, and V0 is the vehicle control measure at time zero.
# SKM-1 (non-MLLr) = assay: as above; format: cell-based, human; conditions: 300 nM EPZ-5676 7-day pre-treatment
# Procedure: as §6, §8, §9, §10, §11
# OCI-AML-4 (MLL-ENL) = assay: as above; format: cell-based; conditions: 300 nM EPZ-5676 7-day pre-treatment, second compound 72 hours
# Procedure: as §6, §8, §9, §10, §11
# [4] = 7 Day Cotreatment Model, Table 4
smiles,measurement,setting,value
Nc1ncn([C@@H]2O[C@H](CO)[C@@H](O)[C@H]2O)c(=O)n1 [Azacitidine],"Combination with Compound A2, MOLM-13 (MLL-AF9)",MOLM-13 (MLL-AF9) [1]; [4],Strong Synergy
same,"Combination with Compound A2, MOLM-13 (MLL-AF9)","MOLM-13 (MLL-AF9) [1]; 7 Day Cotreatment Model, Table 4, listed as azacytidine",synergistically induce an anti-proliferative effect; also recorded: synergistic anti-proliferative activity
same,"Combination with Compound A2, MOLM-13 (MLL-AF9)","MOLM-13 (MLL-AF9) [1]; Table 2, Example 3",Synergy (Drug synergy was statistically defined by CI values less than 1)
same,"Combination of Compound A2 and anti-cancer agent, MV4-11",MV4-11 (MLL-AF4),Synergy (A combination index less than one indicates synergy)
same,"Combination with Compound A2, MV4-11 (MLL-AF4)",MV4-11 (MLL-AF4),Synergy (Drug synergy was statistically defined by CI values less than 1)
same,"Combination with Compound A2, MV4-11 (MLL-AF4)",MV4-11 (MLL-AF4); listed as azacytidine,synergistically induce an anti-proliferative effect; also recorded: synergistic anti-proliferative activity
same,"Combination with Compound A2, MV4-111 MLL-AF4",MV4-11 (MLL-AF4),Synergy (Drug synergy was statistically defined by CI values less than 1)
same,Effect of Compound A2 on the antiproliferative activity of the second agent,[2]; listed as Azacytidine,not potentiated
same,Effect of Compound A2 on the antiproliferative activity of the second agent,[2]; listed as azacytidine,no impact
same,"Combination with Compound A2, EOL-1 (MLL-PTD)",EOL-1 (MLL-PTD),Synergy (Drug synergy was statistically defined by CI values less than 1)
same,"Combination with Compound A2, KOPM-88 (MLL-PTD)",KOPM-88 (MLL-PTD),Synergy (Drug synergy was statistically defined by CI values less than 1)
COc1cc2c(cc1-c1c(C)noc1C)ncc1[nH]c(=O)n([C@H](C)c3ccccn3)c12 [IBET-151],"Combination with Compound A2, MOLM-13 (MLL-AF9)",MOLM-13 (MLL-AF9) [1]; [4],Synergy (Drug synergy was statistically defined by CI values less than 1)
same,"Combination with Compound A2, MOLM-13 (MLL-AF9)","MOLM-13 (MLL-AF9) [1]; Table 2, Example 3",Synergy (Drug synergy was statistically defined by CI values less than 1)
same,"Combination of Compound A2 and anti-cancer agent, MV4-11",MV4-11 (MLL-AF4),Synergy (A combination index less than one indicates synergy)
same,"Combination with Compound A2, MV4-111 MLL-AF4",MV4-11 (MLL-AF4),Synergy (Drug synergy was statistically defined by CI values less than 1)
same,"Combination with Compound A2, SKM-1 AML: Non-rearranged","[2]; Table 2, Example 3",IC50 not achieved
C[C@]12C=CC(=O)C=C1CC[C@@H]1[C@@H]2[C@@H](O)C[C@@]2(C)[C@H]1CC[C@]2(O)C(=O)CO [Prednisolone],"Combination with Compound A2, MOLM-13 (MLL-AF9)",MOLM-13 (MLL-AF9) [1]; [4],Antagonistic (antagonism by CI>1)
same,"Combination with Compound A2, MOLM-13 (MLL-AF9)","MOLM-13 (MLL-AF9) [1]; 7 Day Cotreatment Model, Table 4, listed as prednisolone",antagonism
same,"Combination with Compound A2, MV4-11 (MLL-AF4)",MV4-11 (MLL-AF4),Antagonistic (antagonism by CI>1)
same,"Combination with Compound A2, MV4-11 (MLL-AF4)",MV4-11 (MLL-AF4); listed as prednisolone,antagonism
same,Effect of Compound A2 on the antiproliferative activity of the second agent,[2],enhanced antiproliferative activity
O=C(Nc1ccc2[nH]nc(-c3ccncc3)c2c1)[C@@H]1CCN(CC(=O)N2CCN(c3ccc(-c4ncccn4)cc3)CC2)C1 [SCH772984],MOLM-13 (summary of combination study: EPZ-5676 + 2nd compound),MOLM-13 cells,Synergy (considered synergistic if the IC50 value of the second compound decreased by 2-fold or more when EPZ-5676 was added as compared to the DMSO control)
same,SKM-1 (summary of combination study: EPZ-5676 + 2nd compound),SKM-1 cells,Synergy (considered synergistic if the IC50 value of the second compound decreased by 2-fold or more when EPZ-5676 was added as compared to the DMSO control)
same,"Combination with EPZ-5676, MOLM-13 (MLL-AF9) Retest","MOLM-13 (MLL-AF9) [3]; 150 nM EPZ-5676 7-day pre-treatment, Cell Titer Glo",Synergy (considered synergistic if the GI100 (Growth inhibition 100) value of the second compound decreased by 2-fold or more when EPZ-5676 was added as compared to the DMSO control)
same,"Combination with EPZ-5676, MOLM-13 (MLL-AF9) Primary screen","MOLM-13 (MLL-AF9) [3]; 300 nM EPZ-5676 7-day pre-treatment, ATPLite",Synergy (considered synergistic if the GI100 (Growth inhibition 100) value of the second compound decreased by 2-fold or more when EPZ-5676 was added as compared to the DMSO control)
same,"Combination with EPZ-5676, SKM-1 (non-MLLr) Primary screen",SKM-1 (non-MLLr); ATPLite,Synergy (considered synergistic if the GI100 (Growth inhibition 100) value of the second compound decreased by 2-fold or more when EPZ-5676 was added as compared to the DMSO control)
same,"Combination with EPZ-5676, SKM-1 (non-MLLr) Retest",SKM-1 (non-MLLr); Cell Titer Glo,Synergy (considered synergistic if the GI100 (Growth inhibition 100) value of the second compound decreased by 2-fold or more when EPZ-5676 was added as compared to the DMSO control)
same,"Combination with EPZ-5676, OCI-AML-4 (MLL-ENL) Primary screen",OCI-AML-4 (MLL-ENL); ATPLite,Synergy (considered synergistic if the GI100 (Growth inhibition 100) value of the second compound decreased by 2-fold or more when EPZ-5676 was added as compared to the DMSO control)
same,"Combination with EPZ-5676, OCI-AML-4 (MLL-ENL) Retest",OCI-AML-4 (MLL-ENL); Cell Titer Glo,Synergy (considered synergistic if the GI100 (Growth inhibition 100) value of the second compound decreased by 2-fold or more when EPZ-5676 was added as compared to the DMSO control)
